{"source": "patent US5491131A", "about": "“Somatostatin-active polypeptide composition” (Applied Research Systems ARS Holding NV, priority 1989, dated 1996)", "key": {"[1]": {"tested_on": "rat mesangial cells in culture", "assay": "Prevention of hydrogen peroxide induced contraction of mesangial cells (CSA)", "assay_type": "cell-based, Wistar rats", "details": "for effect on hydrogen peroxide induced reduction in CSA: preincubation 10 minutes before hydrogen peroxide 10^-4 M; for change in CSA compared with the control: somatostatin alone", "description": "(§1) The mesangial cells were obtained after glomeruli isolation by differential sieving (R. P. Misra. Am. J. Clin. Pathol 1972 58 135-139) and collagenase digestion of kidney tissue from Wistar rats. The cell surface area (CSA) was measured using a digital planimeter.\n(§2) Microphotographs were taken at different times and the CSA measured. Each experiment was repeated three times and a total of 8-15 cells were measured for each part of each experiment. The results are expressed as a percentage increase or decrease over the initial CSA, […]."}, "[2]": {"tested_on": "rat mesangial cells in culture", "assay": "Reversal of hydrogen peroxide induced contraction of mesangial cells (CSA)", "assay_type": "cell-based, Wistar rats", "details": "for effect on CSA of untreated cells: somatostatin alone", "description": "as §1, §2"}, "[3]": {"details": "somatostatin infusions of 250 to 375 microgrammes; cited from earlier work"}, "[4]": {"tested_on": "rat mesangial cells in culture", "assay": "Prevention of angiotensin II induced contraction of mesangial cells (cell surface area, CSA)", "assay_type": "cell-based, Wistar rats", "details": "for effect on contractile effect of angiotensin (CSA): preincubation 10 minutes before angiotensin II 10^-8 M", "description": "as §1\nIn experiments concerned with the ability of somatostatin to prevent contraction, the mesangial cells were incubated with somatostatin for ten minutes at a concentration of 10^-6 M or 10^-8 M before the addition of angiotensin II (10^-8 M) or hydrogen peroxide (10^-4 M).\n(§3) In all these experiments, control cells lacked the addition of somatostatin, angiotensin II or hydrogen peroxide to the buffer.\nas §2"}, "[5]": {"tested_on": "rat mesangial cells in culture", "assay": "Reversal of angiotensin II induced contraction of mesangial cells (CSA)", "assay_type": "cell-based, Wistar rats", "details": "FIG. 3", "description": "as §1\nIn experiments concerned with the ability of somatostatin to revese contraction, the mesangial cells were incubated for 30 minutes with either angiotensin II or hydrogen peroxide (at the concentrations mentioned above) before somatostatin at a concentration of 10^-6 M or 10^-8 M was added to the cells.\nas §3, §2"}, "[6]": {"details": "in vivo; cited from earlier work"}, "guanylate cyclase": {"tested_on": "guanylate cyclase", "details": "some cell types; cited from earlier work"}}, "note": "“Also recorded” adds a separate entry of the source.", "data": [{"molecule": "OO", "note": "[hydrogen peroxide]", "values": [{"measurement": "effect on CSA", "setting": "[1]; hydrogen peroxide 10^-4 M alone", "value": "significant reduction in CSA"}, {"measurement": "contraction of cells treated with only hydrogen peroxide", "setting": "[2]; hydrogen peroxide 10^-4 M alone, t=0 to t=60 minutes, FIGS. 7, 8, 10", "value": "remained in a contracted state; also recorded: contracted to a significant degree"}]}, {"molecule": "C[C@H](N)C(=O)NCC(=O)N[C@H]1CSSC[C@@H](C(=O)O)NC(=O)[C@H](CO)NC(=O)[C@H]([C@@H](C)O)NC(=O)[C@H](Cc2ccccc2)NC(=O)[C@H]([C@@H](C)O)NC(=O)[C@H](CCCCN)NC(=O)[C@H](Cc2c[nH]c3ccccc23)NC(=O)[C@H](Cc2ccccc2)NC(=O)[C@H](Cc2ccccc2)NC(=O)[C@H](CC(N)=O)NC(=O)[C@H](CCCCN)NC1=O", "note": "[somatostatin, Somatostatin]", "values": [{"measurement": "reduction in heart rate", "setting": "[3]", "value": "about 10 beats per minute"}, {"measurement": "cell size in microphotographs", "setting": "[4]; cells pre-treated with somatostatin before addition of angiotensin II, FIG. 12", "value": "substantially no change in the size of these cells"}, {"measurement": "effect on contractile effect of angiotensin (CSA)", "setting": "[4]; somatostatin 10^-6 M, FIG. 1", "value": "completely preventing the contractile effect of angiotensin II; also recorded: completely inhibited the contractile effect of angiotensin"}, {"measurement": "effect on contractile effect of angiotensin (CSA)", "setting": "[4]; somatostatin 10^-8 M, FIG. 2", "value": "the same effect occurs"}, {"measurement": "effect in isolation on CSA", "setting": "[4]; somatostatin alone, 10^-6 M, FIG. 1", "value": "no significant effect"}, {"measurement": "change in CSA, incubated in isolation", "setting": "[5]; somatostatin alone, 10^-6 M", "value": "did not observe any significant change in CSA"}, {"measurement": "urinary calcium excretion", "setting": "[6]", "value": "reduces"}, {"measurement": "intracellular cGMP concentrations", "setting": "guanylate cyclase", "value": "increase intracellular cGMP concentrations"}, {"measurement": "effect on hydrogen peroxide induced reduction in CSA", "setting": "[1]; somatostatin 10^-6 M, FIG. 5", "value": "equally effective in preventing the contractile effect; also recorded: prevented"}, {"measurement": "effect on hydrogen peroxide induced reduction in CSA", "setting": "[1]; somatostatin 10^-8 M, FIG. 6", "value": "prevented"}, {"measurement": "change in CSA compared with the control", "setting": "[1]; 10^-6 M, FIG. 5", "value": "did not in itself induce any significant change in CSA"}, {"measurement": "change in CSA compared with the control", "setting": "[1]; 10^-8 M, FIG. 6", "value": "did not in itself induce any significant change in CSA"}, {"measurement": "cell size in microphotographs", "setting": "[2]; hydrogen peroxide at t=0, somatostatin added at t=30 minutes, read at t=60 minutes, FIG. 11", "value": "relax to almost their original size"}, {"measurement": "reversal of contractile effect of hydrogen peroxide (CSA)", "setting": "[2]; somatostatin 10^-6 M added 30 minutes after hydrogen peroxide 10^-4 M, read after a further 30 minutes, FIG. 7", "value": "reverses contraction; also recorded: CSA returns to normal"}, {"measurement": "reversal of contractile effect of hydrogen peroxide (CSA)", "setting": "[2]; somatostatin 10^-8 M added 30 minutes after hydrogen peroxide 10^-4 M, FIG. 8", "value": "The same effect was demonstrated"}, {"measurement": "effect on CSA of untreated cells", "setting": "[2]; 10^-6 M, FIG. 7", "value": "did not significantly effect CSA"}, {"measurement": "effect on CSA of untreated cells", "setting": "[2]; 10^-8 M, FIG. 8", "value": "did not significantly effect CSA"}]}, {"molecule": "angiotensin II [contractile stimulus added to mesangial cells at 10^-8 M]", "values": [{"measurement": "effect on CSA", "setting": "[4]; angiotensin II 10^-8 M alone, after 30 minutes incubation", "value": "significantly reducing the CSA"}, {"measurement": "persistence of induced contraction", "setting": "[5]; angiotensin II 10^-8 M alone", "value": "persisted for 60 minutes"}]}]}
